From US7250434B2, “CCK-1 receptor modulators” (Janssen Pharmaceutica N.V., priority 2003, dated 2007)

Molecular target: T1, CCK-1 receptor (Homo sapiens, UniProt P32238)
T1 construct: expressed in transfected cells; membranes
T1 sequence (P32238 1-428): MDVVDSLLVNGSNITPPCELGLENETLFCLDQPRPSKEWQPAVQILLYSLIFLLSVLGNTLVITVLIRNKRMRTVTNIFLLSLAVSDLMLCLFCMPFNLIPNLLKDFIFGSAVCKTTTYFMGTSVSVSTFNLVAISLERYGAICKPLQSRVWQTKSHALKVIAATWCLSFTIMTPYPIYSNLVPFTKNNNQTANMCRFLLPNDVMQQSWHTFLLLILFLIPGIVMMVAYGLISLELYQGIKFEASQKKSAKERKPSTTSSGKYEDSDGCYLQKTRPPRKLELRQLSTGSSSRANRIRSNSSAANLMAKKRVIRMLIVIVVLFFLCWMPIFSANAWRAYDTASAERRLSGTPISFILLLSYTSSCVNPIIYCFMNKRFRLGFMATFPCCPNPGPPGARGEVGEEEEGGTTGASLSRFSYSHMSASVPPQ
Assay: [125I]-BH-CCK-8S competition binding to membranes of CHO-K1 cells stably transfected with the CCK-1 receptor
Details: membranes of CCK-1 transfected CHO-K1 cells; 20 pM [125I]-BH-CCK-8S; 0.3 μM PD-134,308 present; 60 min at 21±3° C.; Cheng-Prusoff
Experimental: CHO-K1 cells that had undergone stable transfection with the CCK-1 receptor were grown in DMEM supplemented with L-glutamine (2 mM), penicillin (50 units/mL) and streptomycin (50 μg/mL). Cells were cultured under continuous G418 selection (2 mM) and were harvested using a rubber cell scraper. CHO-K1 cells were sub-cultured a maximum of ten times before being reseeded from the original stocks.
Membranes were prepared from the stably transfected CHO-K1 cells. Frozen cell pellets (−40° C.) were thawed in 14 mL of buffer A (10 mM HEPES, 130 mM NaCl, 4.7 mM KCl, 5 mM MgCl, 1 mM EGTA and 15.4 mg/100 mL bacitracin at pH 7.2), adapted from Harper et al. (Br. J. Pharmacol. 1996, 118:1717-1726). The thawed pellets were homogenized using a Polytron PT-10 (7×1 s). The homogenates were centrifuged for 5 min at 1500 rpm (600×g), and the resulting pellets were discarded. The supernatants were re-centrifuged in order to collect the receptor-membrane pellets (25 min 15,000 rpm; 39,800×g), which were re-suspended in buffer A.
All assays were conducted in 96-well plates (GF/B millipore filter plates) using buffer A, with 0.3 μM PD-134,308, for the dilutions. The CCK-2 receptor ligand was included to eliminate the contribution of this receptor subtype to the binding. For the optimal cell number determination experiments 20 pM [^125I]-BH-CCK-8S (50 μL 60 pM solution) was incubated with a range of cell concentrations (2.5×105 to 12.5×10^5 cells/well) in a total volume of 150 μL. Total binding of [^125I]-BH-CCK-8S was determined in the presence of 15 μL of buffer A. Non-specific binding of [^125I]-BH-CCK-8S was determined in the presence of 15 μL of 100 μM 2-naphthalenesulphonyl L-aspartyl-(2-phenethyl)amide (2-NAP: see R. A. Hull et al. Br. J. Pharmacol. 1993, 108:734-740), a CCK-1 receptor selective antagonist that is structurally unrelated to the radioligand [^125I]-BH-CCK-8S. The assay preparation was incubated for 1 h at 21±3° C., and then the assay was terminated upon rapid filtration of the preparation under reduced pressure. The loaded filters were washed three times using undiluted PBS (100 μL), and then the residues were transferred to 5 mL scintillation tubes. Bound radioactivity was determined using a gamma counter (count time=1 min). From these experiments a cell concentration of 1 pellet in 40 mL of buffer (2.5×10^6 cells/mL) was chosen for use in other assays (below). To validate the radioligand concentration and incubation time for the assay, saturation and kinetic binding studies were also conducted (see M. F. Morton, The Pharmacological Characterization of Cholecystokinin Receptors in the Human Gastrointestinal Tract. PhD Thesis, University of London, 2000). The affinity of novel compounds was estimated by incubating membrane preparations with 15 μL of competing ligand (0.1 pM-1 mM) for 60 min at 21±3° C. The assay was then terminated according to the procedure outlined above.
The pKi values were determined using the equation of Y.-C. Cheng and W. H. Prusoff (Biochem. Pharmacol. 1973, 22(23):3099-3108):
[formula] To circumvent problems associated with computer-assisted data analysis of compounds with low affinity, the data obtained in the current study were weighted according to a method described by Morton (2000). In brief, 100% and 0% specific binding were defined independently using total binding and binding obtained in the presence of a high concentration of the reference antagonist, 2-NAP.

| SMILES | Ki [nM] |
| --- | --- |
| O=C(O)/C(=C/c1nc(-c2cc(Cl)ccc2Cl)c(-c2ccc3c(c2)OCO3)[nH]1)c1cccc(Cl)c1 [Example 2, (E)-3-[5-Benzo[1,3]dioxol-5-yl-4-(2,5-dichloro-phenyl)-1H-imidazol-2-yl]-2-(3-chloro-phenyl)-acrylic acid] | 3.16 |
| COc1ccc(-c2[nH]c(/C=C(/C(=O)O)c3cccc(C)c3)nc2-c2ccc(Cl)c(Cl)c2)cc1 [Example 17, (E)-3-[4-(3,4-Dichloro-phenyl)-5-(4-methoxy-phenyl)-1H-imidazol-2-yl]-2-m-tolyl-acrylic acid] | 79.4 |
| O=C(O)/C(=C\c1nc(-c2cc(Cl)ccc2Cl)c(-c2ccc3c(c2)OCO3)[nH]1)c1ccc(Cl)cc1 [Example 5, (Z)-3-[5-Benzo[1,3]dioxol-5-yl-4-(2,5-dichloro-phenyl)-1H-imidazol-2-yl]-2-(4-chloro-phenyl)-acrylic acid] | 3.16 |
| Cc1cccc(/C(=C/c2nc(-c3cc(Cl)ccc3Cl)c(-c3ccc4c(c3)OCO4)[nH]2)C(=O)O)c1 [Example 3, (Z)-3-[5-Benzo[1,3]dioxol-5-yl-4-(2,5-dichloro-phenyl)-1H-imidazol-2-yl]-2-m-tolyl-acrylic acid] | 2 |
| O=C(O)/C(=C\c1nc(-c2ccccn2)c(-c2ccc3ccccc3c2)[nH]1)c1cccc(Cl)c1 [Example 12, (Z)-2-(3-Chloro-phenyl)-3-(5-naphthalen-2-yl-4-pyridin-2-yl-1H-imidazol-2-yl)-acrylic acid] | 5.01 |
| COc1ccc(-c2[nH]c(/C=C(/C(=O)O)c3cccc(C(F)(F)F)c3)nc2-c2ccc(Cl)c(Cl)c2)cc1 [Example 16, (E)-3-[4-(3,4-Dichloro-phenyl)-5-(4-methoxy-phenyl)-1H-imidazol-2-yl]-2-(3-trifluoromethyl-phenyl)-acrylic acid] | 79.4 |
| COc1ccc(-c2[nH]c(/C=C(/C(=O)O)c3ccc(Cl)cc3)nc2-c2ccc(Cl)c(Cl)c2)cc1 [Example 15, (E)-2-(4-Chloro-phenyl)-3-[4-(3,4-dichloro-phenyl)-5-(4-methoxy-phenyl)-1H-imidazol-2-yl]-acrylic acid] | 79.4 |
| COc1cccc(-c2nc(CC(C(=O)O)c3cccc4ccccc34)[nH]c2-c2cccc(OC)c2)c1 (centres unmarked) [Example 33, 3-[4,5-Bis-(3-methoxy-phenyl)-1H-imidazol-2-yl]-2-naphthalen-1-yl-propionic acid] | 2510 |
| COc1ccc(-c2[nH]c(CC(C(=O)O)c3ccc(Cl)cc3)nc2-c2ccc(Cl)c(Cl)c2)cc1 (centres unmarked) [Example 28, 2-(4-Chloro-phenyl)-3-[4-(3,4-dichloro-phenyl)-5-(4-methoxy-phenyl)-1H-imidazol-2-yl]-propionic acid] | 63.1 |
| Cc1ccc(-c2nc(CC(C(=O)O)c3cccc(C)c3)[nH]c2-c2ccc(C)cc2)cc1 (centres unmarked) [Example 30, 3-(4,5-Di-p-tolyl-1H-imidazol-2-yl)-2-m-tolyl-propionic acid] | 20 |
| Cc1ccc(/C(=C\c2nc(-c3cc(Cl)ccc3Cl)c(-c3ccc4c(c3)OCO4)[nH]2)C(=O)O)cc1 [Example 22, (E)-3-[5-Benzo[1,3]dioxol-5-yl-4-(2,5-dichloro-phenyl)-1H-imidazol-2-yl]-2-p-tolyl-acrylic acid] | 25.1 |
| COc1ccc(-c2[nH]c(/C=C(/C(=O)O)c3cccc(Cl)c3)nc2-c2ccc(Cl)c(Cl)c2)cc1 [Example 18, (E)-2-(3-Chloro-phenyl)-3-[4-(3,4-dichloro-phenyl)-5-(4-methoxy-phenyl)-1H-imidazol-2-yl]-acrylic acid] | 63.1 |
| O=C(O)/C(=C\c1nc(-c2cc(Cl)ccc2Cl)c(-c2ccc3c(c2)OCO3)[nH]1)c1cccc(C(F)(F)F)c1 [Example 7, (Z)-3-[5-Benzo[1,3]dioxol-5-yl-4-(2,5-dichloro-phenyl)-1H-imidazol-2-yl]-2-(3-trifluoromethyl-phenyl)-acrylic acid] | 5.01 |
| COc1ccc(-c2[nH]c(/C=C(\C(=O)O)c3cccc(C(F)(F)F)c3)nc2-c2ccc(Cl)c(Cl)c2)cc1 [Example 10, (Z)-3-[4-(3,4-Dichloro-phenyl)-5-(4-methoxy-phenyl)-1H-imidazol-2-yl]-2-(3-trifluoromethyl-phenyl)-acrylic acid] | 10 |
